This is an account of results in patent US20240245670A1, “DOSING REGIMEN AND PHARMACEUTICAL COMBINATION COMPRISING 3-(1-OXOISOINDOLIN-2-YL)PIPERIDINE-2,6-DIONE DERIVATIVES” (Novartis AG, priority 2018, published 2024).

SMILES strings stand for the structures. “Also recorded” adds a separate entry of the source.

For one data set, the target named is T1, TMEM97 (Homo sapiens, UniProt Q5BJF2).
T1 construct: endogenous in cells; host or cells: 293T
Description: Whole cell proteomic analysis in 293T cells. Particulars: nearly 8000 proteins identified. In kind it is cell-based. Here is the method: (§1) Other potential degradation targets of I-57 were evaluated in 293T cells using whole cell proteomic analysis. […] Subsequent analyses have confirmed that FIZ1 is degraded by about 50% at a 10 μM concentration of I-57 ([I-57 Investigator's Brochure]). […] FIZ1 is expressed in the neural retina where it transcriptionally represses the differentiation of photoreceptors. FIZ1 is also expressed in non-ocular tissues with unknown function.

The test system of another data set is peripheral T cells. Description: Proliferation of peripheral T cells (Ki67) in KLH/Squalene immunized cynomolgus monkeys (FIG. 9B). In kind it is in vivo, cynomolgus monkey. As to conditions: 3 mg/kg group. The method, then: FIG. 9B. is a graph showing proliferation of peripheral T cells (Mean+/−SEM, % of predose) upon treatment with 0.1 and 3 mg/kg of Compound I-57 in cynomolgus monkeys.
(§2) The PK/PD relationship of I-57 was further examined in cynomolgus monkeys after repeated daily oral doses of 0.1 and 3 mg/kg. In this study, a cohort of animals were initially immunized with an antigen-adjuvant mixture (KLH/Squalene). The experiment was designed to assess the effect of I-57 exposure, and the resulting IKZF2 degradation, on immune response during immunization to test the hypothesis that IKZF2 degradation would result in increased proliferation of stimulated T-cells. In the experiment, daily I-57 oral treatment was initiated 5 days after immunization. An immunization booster dose was administered on day 15. I-57 plasma concentration and IKZF2 expression (as determined by flow cytometry) in FOXP3+ T cells from PBMCs were determined (FIG. 9A and FIG. 9B).
(§3) In order to measure the impact of I-57 treatment on the immune response following immunization, serum anti-KLH IG levels were measured longitudinally, and levels of T cell activation were measured in PBMCs by flow cytometry. […] In contrast, the proportion of proliferative peripheral T cells (denoted by Ki67 staining) was increased in the highest dose group (3 mg/kg) in the recall response phase, compared to immunization alone.

Another data set has as its system anti-KLH IG. Description: Serum anti-KLH IG levels in immunized cynomolgus monkeys. In kind it is in vivo, cynomolgus monkey. Particulars: daily oral 0.1 and 3 mg/kg. The method, then:
as §2, §3

Data set [1] can be described thus: In vivo non-clinical PK / high dose PK and toxicology exposure. On the set-up: species or system cynomolgus monkey. As to conditions: monkey. The method, then: The in vivo non-clinical PK profile of I-57 was investigated in mouse, rat, dog and cynomolgus monkey using I-57 free base. […] After p.o. administration, the absorption of I-57 was rapid with peak blood concentration (Tmax) occurring between 1 and 4 hours. […] In high dose PK and toxicology studies with I-57 the exposures in mouse, rat and monkey increased with dose.

For another data set, the target named is IKZF2 (Homo sapiens, UniProt Q96SW2+Q9UKS7). Description: Degradation of prolabel-tagged target proteins in HEK293T cells (FIG. 1). In kind it is cell-based. On the set-up: prolabel; expressed in transfected cells; host or cells: HEK293T. Particulars: HEK293T cells overexpressing prolabel-tagged target proteins; various concentrations. From the text: FIG. 1. is a graph showing the selectivity of Compound I-57 for the degradation of IKZF2 over the other IKAROS family members, IKZF1, IKZF4, and GSPT1 at various concentrations in HEK293T cells overexpressing prolabel-tagged target proteins.
Although the specific transcriptional targets of IKZF2 remain to be defined, IKZF2 binds to and represses transcription from the IL-2 promoter region (Baine 2013). […] Finally, an in vitro assay recapitulating hallmarks of T cell dysfunction/exhaustion, by sequential TCR stimulation of isolated primary human T cells, was used to test the hypothesis that […] would rescue the exhausted phenotype and enhance Teff cell activity. […] In addition to IKZF1, other known cereblon substrates including translation termination factor G1 to S phase transition 1 (GSPT1) are not degraded by I-57 (FIG. 1).

The next data set concerns the target T2, FIZ1 (Homo sapiens, UniProt Q96SL8+Q96SW2).
T2 construct: endogenous in cells; host or cells: 293T
Description: Whole cell proteomic analysis in 293T cells and subsequent analyses. In kind it is cell-based. The method, then:
as §1

Data set [2] can be described thus: Toxicology in rats (5-day and 4-week GLP studies). The data set is classed as in vivo. From the text: The non-clinical safety profile of I-57 was established in vitro, and in vivo in rats and cynomolgus monkeys in studies up to 4-weeks duration. Based on the outcome of these studies, QTc interval prolongation was identified as the principal safety signal for I-57. There were other toxicities such as diarrhea and vomiting in monkeys, and mortality, clinical signs and target organ toxicities in rats; however, these occurred at exposures far above those expected to result in clinical activity.
Clinical signs, decreases in body weight and food consumption, and clinical pathology changes reflecting inflammation, renal and liver injury, and stress were generally evident in the pre-terminal animals. Kidney toxicity was evident in rats at doses >100 mg/kg/day and was characterized by increased weight, hematuria, proteinuria, with or without increased blood urea and creatinine, degeneration, regeneration and inflammation at 300 mg/kg/day.
Similar exposure in the clinic would require doses in human of approximately 2,000 and 5,000 mg QD based on the human PK model. Activity is anticipated well below this dose level.

The subject of the next data set is human recombinant CYPs. Description: Assessment of enzymes involved in oxidative metabolism using human recombinant CYPs in vitro. In kind it is in vitro ADME. Particulars: preliminary assessment. Here is the method: In vivo in the dog, very minor amounts of the N-dealkylation product and products derived from hydrolysis of the glutarimide moiety were detected in plasma. While the contribution of CYP-mediated oxidative metabolism to systemic clearance is unknown, a preliminary assessment of the enzymes involved was conducted using human recombinant CYPs in vitro.

Data set [3] is described as follows: ECG (QTc interval) in single dose and 4-week GLP repeat dose study. In kind it is in vivo, monkey. Here is the method:
The risk of possible QTc interval prolongation at the starting dose is therefore considered low. QT prolongation may become clinically significant during escalation but are not anticipated to be dose limiting until doses at or above 640 mg. Monitoring and other measures to mitigate potential risk of arrhythmia is addressed in Example 3 below.

The nature of data set [4]: In vitro metabolism in liver microsomes and hepatocytes across species. In kind it is in vitro ADME. For orientation: Liver microsomes are vesicles of endoplasmic reticulum, rich in cytochrome P450 enzymes.

T2 sequence (Q96SL8 whole entry): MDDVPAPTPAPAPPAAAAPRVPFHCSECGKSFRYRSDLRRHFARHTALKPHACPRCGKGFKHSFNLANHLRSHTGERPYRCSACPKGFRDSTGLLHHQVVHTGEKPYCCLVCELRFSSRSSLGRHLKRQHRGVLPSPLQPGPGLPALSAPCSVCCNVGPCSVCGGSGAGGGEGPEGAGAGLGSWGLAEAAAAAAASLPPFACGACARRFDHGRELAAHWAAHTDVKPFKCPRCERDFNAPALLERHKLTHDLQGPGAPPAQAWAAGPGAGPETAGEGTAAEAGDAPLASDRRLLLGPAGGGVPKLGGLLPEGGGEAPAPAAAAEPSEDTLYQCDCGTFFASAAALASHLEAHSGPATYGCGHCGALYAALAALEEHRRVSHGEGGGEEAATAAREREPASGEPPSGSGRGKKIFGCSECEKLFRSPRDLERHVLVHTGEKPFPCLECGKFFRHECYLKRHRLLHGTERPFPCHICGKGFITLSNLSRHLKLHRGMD
T2 sequence (Q96SW2 whole entry): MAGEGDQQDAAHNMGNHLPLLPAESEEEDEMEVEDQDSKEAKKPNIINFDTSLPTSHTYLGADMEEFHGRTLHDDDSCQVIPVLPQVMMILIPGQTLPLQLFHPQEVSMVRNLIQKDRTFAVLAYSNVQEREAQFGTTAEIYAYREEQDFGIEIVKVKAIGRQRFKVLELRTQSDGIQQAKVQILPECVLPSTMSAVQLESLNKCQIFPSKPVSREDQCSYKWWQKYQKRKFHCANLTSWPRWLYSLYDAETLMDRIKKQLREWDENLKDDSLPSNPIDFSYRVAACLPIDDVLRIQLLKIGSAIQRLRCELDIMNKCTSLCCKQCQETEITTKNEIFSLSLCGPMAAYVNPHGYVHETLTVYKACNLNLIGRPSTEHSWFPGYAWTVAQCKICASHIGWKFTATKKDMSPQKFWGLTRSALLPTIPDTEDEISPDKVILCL
T2 sequence (Q16531 whole entry partner): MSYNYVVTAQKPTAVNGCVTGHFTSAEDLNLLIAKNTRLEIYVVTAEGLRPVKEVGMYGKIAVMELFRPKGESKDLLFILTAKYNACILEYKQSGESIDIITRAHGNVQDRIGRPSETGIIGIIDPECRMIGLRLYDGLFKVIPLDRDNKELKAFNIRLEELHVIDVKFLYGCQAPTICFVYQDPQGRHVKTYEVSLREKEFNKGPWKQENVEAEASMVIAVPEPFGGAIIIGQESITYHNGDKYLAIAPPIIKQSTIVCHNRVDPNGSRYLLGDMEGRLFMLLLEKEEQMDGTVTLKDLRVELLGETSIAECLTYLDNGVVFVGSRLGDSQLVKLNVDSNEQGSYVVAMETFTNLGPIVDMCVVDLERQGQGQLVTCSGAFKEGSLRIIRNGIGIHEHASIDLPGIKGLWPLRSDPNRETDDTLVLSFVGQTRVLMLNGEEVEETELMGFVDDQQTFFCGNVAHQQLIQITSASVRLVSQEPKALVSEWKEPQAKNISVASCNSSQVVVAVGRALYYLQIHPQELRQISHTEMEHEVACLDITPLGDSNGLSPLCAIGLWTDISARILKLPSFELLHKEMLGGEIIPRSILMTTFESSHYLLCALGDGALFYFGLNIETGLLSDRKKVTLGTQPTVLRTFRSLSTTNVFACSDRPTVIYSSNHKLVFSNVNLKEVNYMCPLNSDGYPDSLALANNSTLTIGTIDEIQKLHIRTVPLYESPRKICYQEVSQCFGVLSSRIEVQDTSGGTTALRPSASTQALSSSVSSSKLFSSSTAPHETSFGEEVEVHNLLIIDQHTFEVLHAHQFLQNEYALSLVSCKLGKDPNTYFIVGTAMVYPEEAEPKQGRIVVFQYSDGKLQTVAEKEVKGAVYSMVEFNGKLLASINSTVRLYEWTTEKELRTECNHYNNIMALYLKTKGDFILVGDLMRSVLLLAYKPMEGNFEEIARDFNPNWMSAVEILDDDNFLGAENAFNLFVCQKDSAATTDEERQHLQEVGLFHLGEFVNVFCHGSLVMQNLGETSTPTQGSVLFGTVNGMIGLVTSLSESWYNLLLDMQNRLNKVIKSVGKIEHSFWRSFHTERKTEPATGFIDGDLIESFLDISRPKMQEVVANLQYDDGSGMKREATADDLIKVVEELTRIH
Sequence of IKZF2 (Q9UKS7 whole entry): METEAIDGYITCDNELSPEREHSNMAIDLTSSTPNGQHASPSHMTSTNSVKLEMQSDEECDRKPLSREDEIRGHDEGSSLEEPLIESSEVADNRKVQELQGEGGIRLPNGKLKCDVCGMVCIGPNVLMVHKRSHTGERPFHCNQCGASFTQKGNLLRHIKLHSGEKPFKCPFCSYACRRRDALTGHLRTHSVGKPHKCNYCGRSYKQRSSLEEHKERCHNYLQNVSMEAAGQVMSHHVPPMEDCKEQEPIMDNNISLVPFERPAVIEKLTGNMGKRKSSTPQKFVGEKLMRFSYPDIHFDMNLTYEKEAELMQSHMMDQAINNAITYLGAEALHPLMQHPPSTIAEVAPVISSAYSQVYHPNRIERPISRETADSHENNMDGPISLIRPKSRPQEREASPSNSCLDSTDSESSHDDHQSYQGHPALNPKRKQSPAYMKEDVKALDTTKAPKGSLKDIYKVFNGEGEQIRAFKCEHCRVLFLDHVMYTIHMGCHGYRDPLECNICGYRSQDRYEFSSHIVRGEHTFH
Sequence of IKZF2 (Q96SW2 whole entry): as the sequence (Q96SW2 whole entry) above
Sequence of IKZF2 (Q16531 whole entry partner): as the sequence (Q16531 whole entry partner) above
T1 sequence (Q5BJF2 whole entry): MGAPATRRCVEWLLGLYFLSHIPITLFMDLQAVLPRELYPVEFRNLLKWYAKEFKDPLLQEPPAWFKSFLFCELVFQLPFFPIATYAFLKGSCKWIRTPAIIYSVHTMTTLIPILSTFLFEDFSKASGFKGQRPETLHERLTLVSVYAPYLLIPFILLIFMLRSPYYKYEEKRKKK

In the case of `O=C1CCC(N2Cc3cc(C4CCN(Cc5ccccc5)CC4)ccc3C2=O)C(=O)N1` (centres unmarked) [Compound I-57, 3-(5-(1-benzylpiperidin-4-yl)-1-oxoisoindolin-2-yl)piperidine-2,6-dione], the “TMEM97 degradation (proteomics)” value on TMEM97 is “degraded”. For the same molecule, the “levels of Ki67 until the end of the study” value with peripheral T cells was “remained elevated”. The “anti-IgG titers elicited by the immunization” value in the data set with anti-KLH IG is “not further enhanced”. For the same molecule, the “increase in AUC with dose” value is on record as “less than dose proportional” in [1] (above 100 mg/kg); “slightly over-proportional” in [1] (between 10 mg/kg and 100 mg/kg). For the same molecule, at IKZF2, the “degradation of IKZF2” value was “potent and specific degrader; also recorded: potent and specific degradation”. The FIZ1 degradation result at FIZ1 (10 μM concentration of I-57) is reported as “about 50%”. The “FIZ1 degradation (proteomics)” value on FIZ1 (293T cells, nearly 8000 proteins identified) is listed as “degraded”. Moreover, the “human dose required for similar exposure (AUC)” value in [2] (exposure associated with mortality and toxicity in rats at 300 mg/kg, human PK model) is reported as ~5,000 mg QD. Also, the urinary bladder findings result in [2] (rat, in vivo, 300 mg/kg/day) is on record as “Degenerative changes”. Besides, the “doses at which kidney toxicity was evident” value in data set [2] (rats) is recorded as above 100 mg/kg/day. Also, the “doses at which mortality occurred” value in data set [2] (rats, females) is reported as above 300 mg/kg/day. Also, the “enzyme primarily mediating oxidative metabolism” value with human recombinant CYPs is listed as “CYP3A4”. Further, in data set [3] (monkeys at 3 mg/kg), the “free Cmax in monkeys relative to free Cmax predicted at the clinical starting dose of 20 mg” value is recorded as 40 times. Also, the QT effects result in [3] (monkeys, 3 mg/kg) is “no QT effects”. Moreover, the “time of highest magnitude of QTc effect” value in [3] (monkeys, coinciding with Tmax) fell in the range of 0.5 to 5.5 h. For the same molecule, in data set [4], the metabolic stability result is given as “very stable”.
